From ChEMBL document CHEMBL3217548, “Biological activity and DNA binding studies of 2-substituted benzimidazo[1,2-a]quinolines bearing different amino side chains” (Medchemcomm, 2013)
Calls of active or inactive are those of the source. No cut-off for these calls is given here.

How the values were obtained:
DNA = test: Induction of DNA damage in plasmid DNA in E. coli S30 cell-free system assessed as inhibition of EGFP translation at 50 uM after 1 hr by fluorescence assay
HCT-116 [1] = test: Cytotoxicity against human HCT116 cells after 72 hrs by MTT assay; assay type: functional, cell-based; details: HCT-116, 72 h
HCT-116 [2] = test: Cell cycle arrest in human HCT116 cells assessed as accumulation at subG1 phase at 0.1 uM after 24 hrs by propidium iodide staining-based FACS analysis (reference value: 2 +/- 0.1 %); assay type: functional
Escherichia coli [3] = test: Induction of topoisomerase1-mediated Escherichia coli pUC19 plasmid relaxation at 20 to 50 uM incubated for 45 mins prior to topoisomerase1 addition by agarose gel electrophoresis
HCT-116 [4] = test: Cell cycle arrest in human HCT116 cells assessed as accumulation at S phase at 1 uM after 48 hrs by propidium iodide staining-based FACS analysis (reference value: 12+/- 5 %); assay type: functional
[5] = Drug uptake in human H460 cell cytoplasm at 10 uM after 2 hrs by fluorescence microscopy; assay type: ADME, cell-based; details: h460, 2 h
MCF7 = test: Cytotoxicity against human MCF7 cells after 72 hrs by MTT assay; assay type: functional, cell-based; details: MCF7, 72 h
HCT-116 [6] = test: Cell cycle arrest in human HCT116 cells assessed as accumulation at S phase at 1 uM after 24 hrs by propidium iodide staining-based FACS analysis (reference value: 48 +/- 6 %); assay type: functional
HCT-116 [7] = test: Cell cycle arrest in human HCT116 cells assessed as accumulation at S phase at 0.1 uM after 48 hrs by propidium iodide staining-based FACS analysis (reference value: 12+/- 5 %); assay type: functional
HCT-116 [8] = test: Cell cycle arrest in human HCT116 cells assessed as accumulation at G2/M phase at 0.1 uM after 48 hrs by propidium iodide staining-based FACS analysis (reference value: 28 +/- 3 %); assay type: functional
Escherichia coli [9] = test: Binding affinity to Escherichia coli pUC19 plasmid assessed as nicked DNA at 5 to 50 uM by ethidium bromide staining-based agarose gel electrophoresis
HCT-116 [10] = test: Cell cycle arrest in human HCT116 cells assessed as accumulation at G2/M phase at 1 uM after 24 hrs by propidium iodide staining-based FACS analysis (reference value: 29 +/- 8 %); assay type: functional
HCT-116 [11] = test: Cell cycle arrest in human HCT116 cells assessed as accumulation at subG1 phase at 1 uM after 24 hrs by propidium iodide staining-based FACS analysis (reference value: 2 +/- 0.1 %); assay type: functional
HCT-116 [12] = test: Cell cycle arrest in human HCT116 cells assessed as accumulation at S phase at 0.1 uM after 24 hrs by propidium iodide staining-based FACS analysis (reference value: 48 +/- 6 %); assay type: functional
HCT-116 [13] = test: Cell cycle arrest in human HCT116 cells assessed as accumulation at G1 phase at 1 uM after 48 hrs by propidium iodide staining-based FACS analysis (reference value: 60 +/- 2 %); assay type: functional
HCT-116 [14] = test: Cell cycle arrest in human HCT116 cells assessed as accumulation at subG1 phase after 24 hrs by propidium iodide staining-based FACS analysis; assay type: functional
Escherichia coli [15] = test: Binding affinity to Escherichia coli pUC19 plasmid assessed as induction of topoisomerase1-mediated DNA relaxation at 1 uM incubated for 45 mins prior to topoisomerase1 addition by agarose gel electrophoresis
HCT-116 [16] = test: Cell cycle arrest in human HCT116 cells assessed as accumulation at G1 phase at 1 uM after 24 hrs by propidium iodide staining-based FACS analysis (reference value: 23 +/- 2 %); assay type: functional
[17] = target: T1, DNA topoisomerase 1 (Homo sapiens) (UniProt P11387); test: Inhibition of human DNA topoisomerase 1 assessed as inhibition of DNA cleavage
T1 sequence (whole entry): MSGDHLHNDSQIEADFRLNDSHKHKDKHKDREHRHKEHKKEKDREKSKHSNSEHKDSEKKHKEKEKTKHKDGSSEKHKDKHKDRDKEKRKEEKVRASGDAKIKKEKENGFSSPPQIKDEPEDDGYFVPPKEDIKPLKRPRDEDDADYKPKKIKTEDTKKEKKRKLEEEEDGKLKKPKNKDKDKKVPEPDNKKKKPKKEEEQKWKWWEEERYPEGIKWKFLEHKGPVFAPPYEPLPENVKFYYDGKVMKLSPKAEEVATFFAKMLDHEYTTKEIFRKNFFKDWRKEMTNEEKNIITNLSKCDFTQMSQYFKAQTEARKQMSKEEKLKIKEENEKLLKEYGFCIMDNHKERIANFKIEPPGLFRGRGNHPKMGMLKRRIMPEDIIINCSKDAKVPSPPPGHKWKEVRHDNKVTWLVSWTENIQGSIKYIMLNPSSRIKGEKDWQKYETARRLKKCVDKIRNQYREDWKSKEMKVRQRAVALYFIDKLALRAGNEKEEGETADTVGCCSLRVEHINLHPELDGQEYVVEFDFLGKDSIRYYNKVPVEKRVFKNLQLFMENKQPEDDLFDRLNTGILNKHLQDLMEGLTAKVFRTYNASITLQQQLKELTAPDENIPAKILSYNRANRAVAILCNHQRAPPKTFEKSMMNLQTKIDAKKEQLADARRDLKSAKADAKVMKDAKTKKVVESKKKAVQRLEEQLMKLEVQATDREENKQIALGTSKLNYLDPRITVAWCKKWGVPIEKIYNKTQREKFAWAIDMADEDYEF

HCT-116 [18] = test: Cell cycle arrest in human HCT116 cells assessed as accumulation at G1 phase at 0.1 uM after 48 hrs by propidium iodide staining-based FACS analysis (reference value: 60 +/- 2 %); assay type: functional
Homo sapiens = species: Homo sapiens; test: Inhibition of human DNA topoisomerase 2 assessed as inhibition of DNA cleavage
HCT-116 [19] = test: Cell cycle arrest in human HCT116 cells assessed as accumulation at G2/M phase at 1 uM after 48 hrs by propidium iodide staining-based FACS analysis (reference value: 28 +/- 3 %); assay type: functional
Calf thymus DNA [20] = test: Binding affinity to calf thymus DNA assessed as hypochromic shift at 20 uM by UV/visible spectrophotometry; assay type: nucleic-acid assay; details: Bos taurus
HCT-116 [21] = test: Cell cycle arrest in human HCT116 cells assessed as accumulation at G1 phase at 0.1 uM after 24 hrs by propidium iodide staining-based FACS analysis (reference value: 23 +/- 2 %); assay type: functional
[22] = Cytotoxicity against human H460 cells after 72 hrs by MTT assay; assay type: functional, cell-based; details: NCI-H460, 72 h
Calf thymus DNA [23] = test: Binding affinity to calf thymus DNA assessed as DNA intercalation at 1 to 50 uM by circular dichroism analysis; assay type: nucleic-acid assay; details: Bos taurus
Calf thymus DNA [24] = test: Binding affinity to calf thymus DNA assessed as change in melting temperature at 0.5 drug/DNA ratio by spectrophotometry; assay type: nucleic-acid assay; details: Bos taurus
HCT-116 [25] = test: Cell cycle arrest in human HCT116 cells assessed as accumulation at subG1 phase at 5 uM after 24 hrs by propidium iodide staining-based FACS analysis; assay type: functional
HCT-116 [26] = test: Cell cycle arrest in human HCT116 cells assessed as accumulation at subG1 phase at 1 uM after 48 hrs by propidium iodide staining-based FACS analysis (reference value: 5 +/- 2 %); assay type: functional
HCT-116 [27] = test: Cell cycle arrest in human HCT116 cells assessed as accumulation at subG1 phase at 0.1 uM after 48 hrs by propidium iodide staining-based FACS analysis (reference value: 5 +/- 2 %); assay type: functional
HCT-116 [28] = test: Cell cycle arrest in human HCT116 cells assessed as accumulation at G2/M phase at 0.1 uM after 24 hrs by propidium iodide staining-based FACS analysis (reference value: 29 +/- 8 %); assay type: functional
Calf thymus DNA [29] = test: Binding affinity to calf thymus DNA assessed as bathochromic shift at 20 uM by UV/visible spectrophotometry; assay type: nucleic-acid assay; details: Bos taurus
[30] = Drug uptake in human H460 cell endosome at 10 uM after 2 hrs by confocal laser scanning microscopy; assay type: ADME, cell-based; details: h460, 2 h
Escherichia coli [31] = test: Binding affinity to Escherichia coli pUC19 plasmid assessed as nicked DNA at 0.1 to 5 uM by ethidium bromide staining-based agarose gel electrophoresis
[32] = Drug uptake in human H460 cell nucleus at 10 uM after 2 hrs by fluorescence microscopy; assay type: ADME, cell-based; details: h460, 2 h
[33] = Drug uptake in human H460 cell lysosome at 10 uM after 2 hrs by confocal laser scanning microscopy; assay type: ADME, cell-based; details: h460, 2 h
H460 = test: Binding affinity to chromosomal DNA in human H460 cells at 10 uM after 2 hrs by confocal laser scanning microscopy; assay type: cell-based
[34] = Drug uptake in human H460 cell nucleus at 10 uM after 2 hrs by confocal laser scanning microscopy; assay type: ADME, cell-based; details: h460, 2 h
[35] = Binding affinity to DNA (unknown origin) at 1 to 10 uM after 15 mins by DNA footprinting assay
Nucleic Acid = test: DNA intercalating activity at Escherichia coli pUC19 plasmid assessed as effect on global structure of DNA helix at 5 to 50 uM incubated for 45 mins prior to topoisomerase1 addition by agarose gel electrophoresis; assay type: nucleic-acid assay

COc1cc([C@@H]2c3cc4c(cc3[C@@H](O[C@@H]3O[C@@H]5CO[C@@H](C)O[C@H]5[C@H](O)[C@H]3O)[C@H]3COC(=O)[C@H]23)OCO4)cc(OC)c1O
inhibition (DNA): inactive

CC(C)CNc1ccc2cc(C#N)c3nc4ccccc4n3c2c1
IC50 (HCT-116 [1]): 600 nM
Activity (HCT-116 [2]): 4%
Activity (Escherichia coli [3]): inactive
Activity (HCT-116 [4]): 0%
Drug uptake [5]: Active
IC50 (MCF7): 400 nM
Activity (HCT-116 [6]): 8%
Activity (HCT-116 [7]): 21%
Activity (HCT-116 [8]): 17%
Activity (Escherichia coli [9]): Active
Activity (HCT-116 [10]): 85%
Activity (HCT-116 [11]): 16%
Activity (HCT-116 [12]): 44%
Activity (HCT-116 [13]): 10%
Activity (HCT-116 [14]): Dose-dependent effect
Activity (Escherichia coli [15]): Active
inhibition at 50 µM (DNA): 17%
Activity (HCT-116 [16]): 7%
Activity [17]: inactive
Activity (HCT-116 [18]): 62%
Activity (Homo sapiens): inactive
Activity (HCT-116 [19]): 90%
Activity (Calf thymus DNA [20]): Active
Activity (HCT-116 [21]): 14%
IC50 [22]: 300 nM
Activity (Calf thymus DNA [23]): inactive
ΔTm (Calf thymus DNA [24]): 3.8 °C
Activity (HCT-116 [25]): 40%
Activity (HCT-116 [26]): 30%
Activity (HCT-116 [27]): 6%
Activity (HCT-116 [28]): 42%

CN(C)CCCNc1ccc2cc(C#N)c3nc4ccccc4n3c2c1
IC50 (HCT-116 [1]): 230 nM
Activity (HCT-116 [2]): 6%
Activity (Calf thymus DNA [29]): Active
Activity (HCT-116 [4]): 1%
Drug uptake [5]: Active
IC50 (MCF7): 400 nM
Activity (HCT-116 [6]): 13%
Activity (HCT-116 [7]): 23%
Activity (HCT-116 [8]): 17%
Activity (HCT-116 [10]): 65%
Drug uptake [30]: Active
Activity (HCT-116 [11]): 5%
Activity (HCT-116 [12]): 47%
Activity (HCT-116 [13]): 41%
Activity (HCT-116 [14]): Dose-dependent effect
Activity (Escherichia coli [31]): Active
Drug uptake [32]: Active
inhibition at 50 µM (DNA): 72%
Drug uptake [33]: Active
Activity (HCT-116 [16]): 22%
Activity [17]: inactive
Activity (HCT-116 [18]): 60%
Activity (Homo sapiens): inactive
Activity (HCT-116 [19]): 58%
Activity (Calf thymus DNA [20]): Active
Activity (HCT-116 [21]): 13%
IC50 [22]: 300 nM
Activity (Calf thymus DNA [23]): Active
Activity (H460): Active
ΔTm (Calf thymus DNA [24]): 19.2 °C
Drug uptake [34]: Active
Activity (HCT-116 [25]): 40%
Activity (HCT-116 [26]): 8%
Activity [35]: Active
Activity (HCT-116 [27]): 4%
Activity (HCT-116 [28]): 40%

CCCN(CCC)c1ccc2cc(C#N)c3nc4ccccc4n3c2c1
IC50 (HCT-116 [1]): 500 nM
IC50 (MCF7): 2500 nM
IC50 [22]: 300 nM

CCN(CC)c1ccc2cc(C#N)c3nc4ccccc4n3c2c1
IC50 (HCT-116 [1]): 2000 nM
IC50 (MCF7): 2000 nM
IC50 [22]: 1600 nM

N#Cc1cc2ccc(N3CCCCC3)cc2n2c1nc1ccccc12
IC50 (HCT-116 [1]): 8000 nM
Activity (Nucleic Acid): inactive
IC50 (MCF7): 2000 nM
Activity (Escherichia coli [9]): Active
Activity [17]: inactive
Activity (Homo sapiens): inactive
IC50 [22]: 5000 nM
Activity (Calf thymus DNA [23]): inactive
ΔTm (Calf thymus DNA [24]): 0 °C

CCN(CC)CCNc1ccc2cc(C#N)c3nc4ccccc4n3c2c1
IC50 (HCT-116 [1]): 200 nM
IC50 (MCF7): 300 nM
IC50 [22]: 200 nM
